Source: patent publication US8663646B2, “P53 peptide vaccine” (priority 2007, dated 2014)
Where no end group is shown, it is not given here.

What was measured:
HLA-A*0301 [1] = molecular target: T1, HLA-A*0301 (Homo sapiens, UniProt P04439); assay: Stability of peptide-HLA complex, binding at 4° C. and 20° C., HLA-A*0301; conditions: for HLA binding Stability (Table 5): HLA type A3; for Peptide Binding Stability: HLA-A*0301, IC50 at 20° C. vs 4° C.
T1 construct: B-cell lines used are: CAA (A*0101), EKR (A*0301), BVR (A*1101), VIJF (A*2401); endogenous in cells; host or cells: B-cell line EKR
Description: (§1) Stability of other peptide-HLA complexes was preferably determined as follows. […] Peptides of >50% of the initial complexes was lost within 2 hours were considered unstable. […] The rest was designated as unstable peptide binding.
(§2) Peptides 8-11 residues in length were selected based on typical anchor residues for HLA-A*0101, A*0301, A*1101 and HLA-A*2401 (Rammensee H G et al). The capacity of peptides to bind was tested in a competition based cellular binding assay as previously described (van der Burg S H et al 1995). FL-labeled reference peptides were synthesized as Cys-derivative (van der Burg S H et al 1995). Fluorescence labeled reference peptides used were: YLEPAC(FL)AK (SEQ ID NO: 87) (HLA-A*0101) and KVFPC(FL)ALINK (SEQ ID NO: 88) (HLA-A*1101) (Sette A et al), KVFPC(FL)ALINK (SEQ ID NO: 89) (HLAA*0301) (van der Burg S H et al 1995) and RYLKC(FL)QQLL (SEQ ID NO: 90) (A*2401) (Dai L C et al). B-cell lines used are: CAA (A*0101), EKR (A*0301), BVR (A*1101), VIJF (A*2401). The relative binding capacity of the peptides is expressed as the peptide concentration to inhibit 50% (1050) of the binding of the reference peptide. […] Peptide stabilization for HLA-A*0201 was performed as previously described (van der Burg S H et al, 1996). Peptides of >50% of the initial complexes was lost within 2 hours were considered unstable. Stability of other peptide-HLA complexes was determined as follows. Peptide binding was performed at 4° C. and 20° C. and 1050 were determined. […] The rest was designated as unstable peptide binding.

HLA-A*1101 = molecular target: T2, HLA-A*1101 (Homo sapiens, UniProt P04439, A114D/D185E/E176A/F33Y/L180Q/S129P/T187R); assay: Stability of peptide-HLA complex, binding at 4° C. and 20° C., HLA-A*1101; conditions: for HLA binding Stability (Table 5): HLA type A11; for Peptide Binding Stability: HLA-A*1101, IC50 at 20° C. vs 4° C.
T2 construct: B-cell lines used are: CAA (A*0101), EKR (A*0301), BVR (A*1101), VIJF (A*2401); endogenous in cells; host or cells: B-cell line BVR
Description: as §1, §2

HLA-A*0301 [2] = molecular target: T1, HLA-A*0301; assay: Competition based cellular binding assay, HLA-A*0301 (B-cell line EKR); conditions: for IC50: read-out: Peptide Binding Affinity; for HLA binding Affinity (Table 5): HLA type A3

Compound	HLA binding Stability (Table 5) (HLA-A*0301 [1])	Peptide Binding Stability (HLA-A*0301 [1])	HLA binding Stability (Table 5) (HLA-A*1101)	Peptide Binding Stability (HLA-A*1101)	IC50 (HLA-A*0301 [2]; HLA-A*0301, IC50 category)	HLA binding Affinity (Table 5) (HLA-A*0301 [2])	Peptide Binding Affinity (HLA-A*0301 [2]; HLA-A*0301, IC50 category)
C[C@@H](O)[C@H](NC(=O)[C@@H](N)CCCCN)C(=O)N[C@@H](Cc1ccc(O)cc1)C(=O)N[C@@H](CCC(N)=O)C(=O)NCC(=O)N[C@@H](CO)C(=O)N[C@@H](Cc1ccc(O)cc1)C(=O)NCC(=O)N[C@@H](Cc1ccccc1)C(=O)N[C@@H](CCCNC(=N)N)C(=O)O [p53 101-110]	+/− (Peptides that displayed IC50 at 20 °C of more than twice the IC50 at 4 °C but IC50 < 15 μM were considered to bind with intermediate stability.)	+/− (Peptides that displayed IC50 at 20 °C of more than twice the IC50 at 4 °C but IC50 < 15 μM were considered to bind with intermediate stability.)	+/− (Peptides that displayed IC50 at 20 °C of more than twice the IC50 at 4 °C but IC50 < 15 μM were considered to bind with intermediate stability.)	+/− (Peptides that displayed IC50 at 20 °C of more than twice the IC50 at 4 °C but IC50 < 15 μM were considered to bind with intermediate stability.)	–	–	–
CC(C)C[C@H](NC(=O)[C@H](C)NC(=O)[C@@H]1CCCN1C(=O)[C@H](CO)NC(=O)[C@H](Cc1ccc(O)cc1)NC(=O)[C@@H](NC(=O)[C@H](CS)NC(=O)[C@@H](NC(=O)[C@@H](N)C(C)C)[C@@H](C)O)[C@@H](C)O)C(=O)N[C@@H](CC(N)=O)C(=O)N[C@@H](CCCCN)C(=O)O [p53 122-132]	–	+ (Stable peptides displayed IC50 at 20 °C that deviated <2 times of the IC50 at 4° C.)	–	–	5 to 15 µM	–	–
CC(C)C[C@H](NC(=O)[C@H](C)NC(=O)[C@@H]1CCCN1C(=O)[C@H](CO)NC(=O)[C@H](Cc1ccc(O)cc1)NC(=O)[C@@H](NC(=O)[C@@H](N)CS)[C@@H](C)O)C(=O)N[C@@H](CC(N)=O)C(=O)N[C@@H](CCCCN)C(=O)O [p53 124-132]	–	+ (Stable peptides displayed IC50 at 20 °C that deviated <2 times of the IC50 at 4° C.)	–	+ (Stable peptides displayed IC50 at 20 °C that deviated <2 times of the IC50 at 4° C.)	–	–	–
CC[C@H](C)[C@H](NC(=O)[C@H](C)NC(=O)[C@H](CCSC)NC(=O)[C@H](C)NC(=O)[C@H](CCCNC(=N)N)NC(=O)[C@@H](NC(=O)[C@H](CCCNC(=N)N)NC(=O)[C@@H](NC(=O)CN)[C@@H](C)O)C(C)C)C(=O)N[C@@H](Cc1ccc(O)cc1)C(=O)O [p53 154-163]	− (The rest was designated as unstable peptide binding.)	− (The rest was designated as unstable peptide binding.)	–	–	–	–	–
CC[C@H](C)[C@H](NC(=O)[C@H](C)NC(=O)[C@H](CCSC)NC(=O)[C@H](C)NC(=O)[C@H](CCCNC(=N)N)NC(=O)[C@@H](NC(=O)[C@H](CCCNC(=N)N)NC(=O)[C@@H](NC(=O)CN)[C@@H](C)O)C(C)C)C(=O)N[C@@H](Cc1ccc(O)cc1)C(=O)N[C@@H](CCCCN)C(=O)O [p53 154-164]	+ (Stable peptides displayed IC50 at 20 °C that deviated <2 times of the IC50 at 4° C.)	+ (Stable peptides displayed IC50 at 20 °C that deviated <2 times of the IC50 at 4° C.)	–	–	–	–	–
CC[C@H](C)[C@H](NC(=O)[C@H](C)NC(=O)[C@H](CCSC)NC(=O)[C@H](C)NC(=O)[C@H](CCCNC(=N)N)NC(=O)[C@@H](NC(=O)[C@@H](N)CCCNC(=N)N)C(C)C)C(=O)N[C@@H](Cc1ccc(O)cc1)C(=O)N[C@@H](CCCCN)C(=O)O [p53 156-164]	+ (Stable peptides displayed IC50 at 20 °C that deviated <2 times of the IC50 at 4° C.)	+ (Stable peptides displayed IC50 at 20 °C that deviated <2 times of the IC50 at 4° C.)	+ (Stable peptides displayed IC50 at 20 °C that deviated <2 times of the IC50 at 4° C.)	+ (Stable peptides displayed IC50 at 20 °C that deviated <2 times of the IC50 at 4° C.)	–	–	–
CC(C)[C@H](N)C(=O)N[C@H](C(=O)N[C@@H](CCCNC(=N)N)C(=O)N[C@@H](CCCNC(=N)N)C(=O)N[C@@H](CS)C(=O)N1CCC[C@H]1C(=O)N[C@@H](Cc1c[nH]cn1)C(=O)N[C@@H](Cc1c[nH]cn1)C(=O)N[C@@H](CCC(=O)O)C(=O)N[C@@H](CCCNC(=N)N)C(=O)O)C(C)C [p53 172-181]	+ (Stable peptides displayed IC50 at 20 °C that deviated <2 times of the IC50 at 4° C.)	+ (Stable peptides displayed IC50 at 20 °C that deviated <2 times of the IC50 at 4° C.)	–	–	–	–	–
CC(C)C[C@H](NC(=O)[C@H](Cc1c[nH]cn1)NC(=O)[C@H](CO)NC(=O)[C@H](CO)NC(=O)[C@H](Cc1c[nH]cn1)NC(=O)[C@H](C)NC(=O)[C@@H](N)CCCNC(=N)N)C(=O)N[C@@H](CCCCN)C(=O)N[C@@H](CO)C(=O)N[C@@H](CCCCN)C(=O)N[C@@H](CCCCN)C(=O)O [p53 363-373]	+ (Stable peptides displayed IC50 at 20 °C that deviated <2 times of the IC50 at 4° C.)	+ (Stable peptides displayed IC50 at 20 °C that deviated <2 times of the IC50 at 4° C.)	–	–	–	–	–
CSCC[C@H](NC(=O)[C@H](CC(C)C)NC(=O)[C@H](CCCCN)NC(=O)[C@H](CCCCN)NC(=O)[C@H](Cc1c[nH]cn1)NC(=O)[C@H](CCCNC(=N)N)NC(=O)[C@H](CO)NC(=O)[C@@H](NC(=O)[C@@H](N)CO)[C@@H](C)O)C(=O)N[C@@H](Cc1ccccc1)C(=O)N[C@@H](CCCCN)C(=O)O [p53 376-386]	− (The rest was designated as unstable peptide binding.)	+/− (Peptides that displayed IC50 at 20 °C of more than twice the IC50 at 4 °C but IC50 < 15 μM were considered to bind with intermediate stability.)	–	–	–	–	–
GGSRAHSSHLK [p53 360-370]	− (The rest was designated as unstable peptide binding.)	− (The rest was designated as unstable peptide binding.)	–	–	5 to 15 µM	int	–
GSRAHSSHLK [p53 361-370]	+ (Stable peptides displayed IC50 at 20 °C that deviated <2 times of the IC50 at 4° C.)	+ (Stable peptides displayed IC50 at 20 °C that deviated <2 times of the IC50 at 4° C.)	–	–	–	high	high
RAHSSHLKSK [p53 363-372]	− (The rest was designated as unstable peptide binding.)	+/− (Peptides that displayed IC50 at 20 °C of more than twice the IC50 at 4 °C but IC50 < 15 μM were considered to bind with intermediate stability.)	–	–	5 to 15 µM	int	–
RVRAMAIY [p53 156-163]	− (The rest was designated as unstable peptide binding.)	− (The rest was designated as unstable peptide binding.)	–	–	5 to 15 µM	int	–
